Data as given in publication PMC11477218 (International Journal of Molecular Sciences, 2024).
Like-named read-outs stand apart in the source and are kept apart here.

Molecular target: T1, 20S proteasome β5 subunit (Homo sapiens, UniProt P28074)
T1 construct: gene PSMB5; human erythrocyte 20S proteasome (constitutive); with other subunits of the 20S proteasome
T1 sequence (P28074 60-263): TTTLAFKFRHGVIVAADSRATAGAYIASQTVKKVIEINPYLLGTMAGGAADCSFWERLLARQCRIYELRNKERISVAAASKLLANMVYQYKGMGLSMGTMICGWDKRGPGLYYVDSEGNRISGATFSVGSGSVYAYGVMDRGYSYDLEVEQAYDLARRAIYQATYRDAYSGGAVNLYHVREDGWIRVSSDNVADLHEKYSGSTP
Experiment: fluorogenic Suc-LLVY-AMC chymotrypsin-like activity assay
Type: biochemical

SMILES	IC50 (read-out: IC50) [µM]	IC50 [µM]
COc1cc2ccn(C/C=C/C(=O)NCCC(C)C)c(=O)c2cc1OC [AM12]	12.2 ± 1.8	
O=c1c(O)c(-c2ccc(O)c(O)c2)oc2cc(O)cc(O)c12 [quercetin]		2.96 ± 0.77
